Measurements taken from patent publication US12162811B2, “F-18 labeled chiral pure derivative of hydroxyfuran, preparation method and use thereof” (The First Affiliated Hospital of Sun Yat-sen University, priority 2022, dated 2024).
Entries after “also recorded” stand apart in the source; their conditions may differ. One block for each compound: values may come before it.

How the values were obtained:
[1] = biodistribution in human body (ROI time-activity profiles of source organs); assay type: in vivo
From the text: For the 6 sets of images obtained by Example 5, the ROI was depicted in the whole body images at the first time point and replicated to subsequent time point scans so as to determine the cumulative radioactivity in each source organ. The genital volume was manually adjusted if necessary. Major source organs include brain, thyroid, lung, heart wall, liver, gallbladder, stomach, adrenals, kidneys, pancreas, spleen, uterus (female only), testes (male only), and bone marrow. The biodistribution analysis included muscle and the absorbed dose analysis included bladder. Spinal ROIs were plotted as an alternative to the red bone marrow. Time-activity profiles were derived from each ROI, and cumulative radioactivity for each source organ was expressed as a percentage of the injected dose (% ID).

[2] = radiometrics: residence times and radiation absorbed dose (MIRD); assay type: in vivo, human
Procedure: For the six sets of data obtained through Example 6, the residence times were calculated as the area under each time-activity curve by curve fitting with either a mono-or bi-exponential function model. The residence times of the bladder were generated by the integration of the time-activity curve from zero time to the last emission scan time plus the integration of the function from the last scan time to infinity (physical decay only). These residence times are then used for radiation absorbed dose calculations. The radiation absorbed dose was calculated for each subject using the Medical Internal Radiation Dose (MIRD) algorithm. The absorbed dose in the target area specified by MIRD was calculated according to the standardized Cristy Eckerman 70 kg adult male model, and the effective dose was assessed according to the tissue weighting factors in the publication of International Commission on Radiological Protection.

HCT8 xenograft tumor = assay: micro-PET/CT imaging of tumor-bearing nude mice after intratumoral or tail vein injection; assay type: in vivo, nude mouse; settings: for SUVmax in the tumor: 5 min after injection; for SUVmax of the tumors: 1 h
Procedure: A nude mouse model with HCT8 xenograft tumor was established, and dynamic imaging was performed after intratumoral injection upon anesthesia of the tumor-bearing mice: 0.1 mL (about 100 μCi) of the solution prepared automatically with saline dilution with or without supersaturated sodium ascorbate was taken from a 1 mL syringe needle, and the solution was injected intratumorally into the nude mice model with an automatic syringe pump at 0.1 mL/min, and a dynamic 1-h microPET/CT imaging was performed. Delayed imaging was performed: statically imaged 2 h after injection.
Static micro-PET/CT imaging was performed 1 hour after tail vein injection in the anesthetized tumor-bearing mice.

tumor lesions = assay: whole-body dynamic PET/CT imaging of tumor patients; assay type: in vivo, human
Procedure: Six patients with different tumors fasted and urinated for at least 6 hours prior to receiving PET/CT scanning, approximately 5, 13, 30, 45 and 60 minutes after injection of (4R, 5R)[^18F]FAA (mean 448±113 MBq), the five consecutive whole-body dynamic PET/CT scanning was conducted for each participant using a uMI 780 scanner (United Imaging Healthcare) or Discovery MI scanner (GE Healthcore). The CT acquisition parameters of the uMI 780 scanner were 120 kV, smart 100-200 mAs, detector coverage of 40 mm, spacing of 0.9875, slice thickness of 1.0 mm, and rotation time of 0.5 s. The PET emission scan time was 1.5 min per bed with 6 beds covering the scanning area. Finally, the PET images were reconstructed by the regularized ordered subset expectation maximization algorithm (R-OSEM, UNITED IMAGING) with attenuation normalization using ACCT images. The CT acquisition parameters of the Discovery MI scanner were 120 kV, smart 120-180 mA, detector coverage of 40 mm, slice thickness of 0.625 mm, pitch to speed of 0.984:1, 39.37 and rotation time of 0.6 s. The PET emission scanning time was 1 min per bed with 6 to 8 beds covering the scanning area. Finally, the PET images were reconstructed by a Bayesian penalized likelihood (BPL) reconstruction algorithm (Q.clear, GE Healthcare) and attenuation nominalization was performed using ACCT images. Urine samples were collected after the last PET/CT scan and total radioactivity of the urine was assessed.

[3] = comparison PET tracer; cited from earlier work
[4] = intratumoral injection, with supersaturated sodium ascorbate
[5] = intratumoral injection, without supersaturated sodium ascorbate

uptake in liver, adrenal glands, choroid plexus, pituitary gland and thyroid (exception of the kidney) ([1]; 1 h after injection): high uptake
uptake in heart, muscle and brain ([1]; during the imaging phase): low
uptake in liver, adrenal glands, kidneys, choroid plexus, pituitary gland and thyroid ([1]; earliest imaging time point, most subjects): high uptake
uptake in spleen, intestine, salivary glands and bone marrow ([1]; slow clearance over time): moderate uptake
mean effective dose (ED) ([2]; ICRP tissue weighting factors): 1.68±0.36E-02 mSv/MBq
absorbed dose ([2]; adrenal gland): 1.89±0.61E-02 mGy/MBq
residence time ([2]; bladder wall): 1.16±0.54E-03 hours
absorbed dose ([2]; brain): 4.88±1.21E-03 mGy/MBq
absorbed dose ([2]; kidney): 1.87±0.38E-02 mGy/MBq
residence time ([2]; kidney): 1.77±0.53 E-03 hours
absorbed dose ([2]; liver): 3.42±0.75E-02 mGy/MBq
residence time ([2]; liver): 22.5±4.94 E-02 hours
residence time ([2]; lung): 3.18±0.49 E-02 hours
absorbed dose ([2]; spleen): 2.95±1.70E-02 mGy/MBq
residence time ([2]; spleen): 2.19±1.59 E-02 hours
residence time ([2]; thymus): 2.74±1.37E-05 h
mean systemic absorbed dose ([2]; whole body): 6.54±1.58E-03 mSv/MBq
effect of added supersaturated sodium ascorbate on metabolism of the tracer in the liver (HCT8 xenograft tumor; intratumoral injection, dynamic imaging): significantly inhibited
Compound: O=C1O[C@H]([C@@H](O)C[18F])C(O)=C1O [(4R, 5R)[^18F]FAA]
route of excretion ([1]; human): excreted mainly through the kidneys to the bladder
SUVmax in the tumor (HCT8 xenograft tumor; [4]): 165 % ID/g
SUVmax of the tumors (HCT8 xenograft tumor; [4]): 45 % ID/g
SUVmax in the tumor (HCT8 xenograft tumor; [5]): 88 % ID/g
SUVmax of the tumors (HCT8 xenograft tumor; [5]): 34 % ID/g
SUVmax of tumors, delayed imaging (HCT8 xenograft tumor; intratumoral injection, without supersaturated sodium ascorbate, 2 h after injection): 35 % ID/g
SUVmax of the tumors (HCT8 xenograft tumor; tail vein injection): 6.3 % ID/g
uptake in tumors (HCT8 xenograft tumor; tumor-bearing mice): certain tumor uptake; also recorded: high uptake in tumors
metastases detected (tumor lesions; 6 patients): 168
primary lesions detected (tumor lesions; 6 patients): 2
mean SUVmax in all tumor lesions (tumor lesions; 6 patients, all tumor lesions): 6.89±3.82
median SUVmax in all tumor lesions (tumor lesions; 6 patients, all tumor lesions): 6.07
range of SUVmax in all tumor lesions (tumor lesions; 6 patients, all tumor lesions): 1.62-22.85
tumor radioactivity uptake (tumor lesions; kidney cancer and intestinal cancer patients): average tumor radioactivity uptake
uptake in primary and metastatic tumor foci (tumor lesions; thyroid cancer and lung cancer): very high uptake
safety in humans (tumor lesions; tumor patients): safe for use in humans
uptake in tumors (tumor lesions; tumor patients): high uptake in tumors

Compound: [^18F]FDG
systemic absorbed effective dose [3]: 1.90±0.36 E-02 mSv/MBq
